What was measured:
androgen receptor = androgen receptor (Homo sapiens, UniProt P10275); assay: interaction with androgen receptor
CaCo-2 cell monolayer = assay: drug absorption with CaCo-2 cells; assay type: in vitro ADME, human
Method: Measurement of drug absorption with CaCo-2 cells. This protocol was used to measure the influx of compounds across a CaCo-2 cell monolayer. […] This cell line is used to study the rate at which various compounds cross the cell monolayer. […] This can provide information about a compound's potential to be orally bioavailable.
In this protocol, the cells were maintained in medium at 37° C., using 100 μL per well of warm medium in a sterile 50 ml tube. The cells were grown on sterile 24-well plates with 600 μL of differentiation medium per well. The wells contained a transwell insert to allow two compartments per well. […]
After differentiation medium reached room temperature, about 20 mL was poured into a small beaker. […] Each well was measured by the probe by inserting the probe into the well without touching the cell monolayer; press the TEST button when the probe is close to the medium surface and the reading will go from 0000 to a number when the probe touches the surface; a reading >1000Ω was acceptable. […]
20 μL of the 3α,7β,16α,17β-tetrahydroxyandrost-5-ene internal standard was added to each tube and 1500 μL of methyl-t-butyl ether was added to each tube. […] The methyl-t-butyl ether was then evaporated under nitrogen and reconstituted in 120 μL acetonitrile/water (35:65) and analyzed by LCMS.

[1] = system: estrogen receptor-s or estrogen receptor-s; assay: interaction with estrogen receptors
female SJL mice, EAE = assay: experimental autoimmune encephalomyelitis (EAE), PLP-induced, Example 23; assay type: in vivo, mouse; conditions: 0.1 mg q.d. po from clinical onset
MG-63 cells = assay: reversal of glucocorticoid effects in MG-63 osteosarcoma cells; assay type: cell-based, human; conditions: 0.1 μM compound
[2] = metabolic stability in liver microsomes: mouse; conditions: 10 min
Method: (§1) The protocol was performed as follows. […] (2) Set up samples as follows. […] (4) The internal standard/acetonitrile solution.

[3] = system: 8 week old db/db diabetic mice; assay: hyperinsulinemic-euglycemic clamp in db/db mice; assay type: in vivo, mouse
Method: Glucose lowering in 8 week old db/db diabetic mice. The hyperinsulinemic-euglycemic clamp protocol was conducted to measure insulin sensitivity in vivo. In this procedure, insulin was administered to raise the insulin concentration while glucose was infused to maintain euglycemia or a fixed, normal blood glucose level (about 180 mg/dL). […] The objective of this protocol was to investigate characterize the capacity of 17α-ethynylandrost-5-ene-3β,7β,17β-triol and androst-5-ene-3β,7β,16α,17β-tetrol to ameliorate systemic insulin resistance and improve whole body glucose disposal in the hyperinsulinemic-euglycemic clamp model. The degree of skeletal muscle and hepatic insulin sensitivity and tissue specific glucose uptake were also assessed. The animals were dosed daily by oral gavage for 14 days. On Day 10 of treatment catheters were implanted in the carotid artery and jugular vein. On the day of the clamp (day 14) the compound was administered at 7:30 am.
Body weight and glucose concentration were assessed on day 0, 7 and day 14 of treatment. On day 14 a euglycemic hyperinsulinemic clamp was performed. […] Plasma ^14C 2-deoxyglucose was assessed at 122, 125, 130, 135, 145 min. […]
Analysis was conducted as follows. Plasma samples were deproteinized with Ba(OH)2 (0.3 N) and ZnSO4 (0.3 N), dried and radioactivity was assessed on scintillation counter (Packard TRICARB 2900 TR, Meriden, Conn.). […] One supernatant was directly counted to determine radioactivity from both [14C] […] A second aliquot was treated with Ba(OH)2 and ZnSO4 to remove ^14C DGP and any tracer incorporated into glycogen and then counted to determine radioactivity from free [^14C]DG(2). [^14C]DGP was calculated as the difference between the two aliquots. […] Rg, an index of tissue specific glucose uptake was calculated as previously described (E. W. Kraegen et al., Am. J. Physiol., 248:E353-E362, 1985). Whole body glucose turnover was calculated as the ratio of the ^3H glucose infusion rate (dpm/kg/min) and arterial plasma glucose specific activity (dpm/mg). […]

[4] = system: C57/BL6 mice, LPS-induced acute lung inflammation; assay: LPS-induced lung injury, BAL and lung MPO, Example 11; assay type: in vivo, mouse; conditions: 40 mg/Kg orally; 48 h after LPS
[5] = metabolic stability in liver microsomes: human
Method: as §1

[6] = other protocols: degree of sulfation and glucuronidation
PPARα mRNA = assay: liver mRNA by RT-PCR in rats fed compound in chow: PPARα; assay type: in vivo, rat; conditions: 0.45% wt/wt in chow for 6 days; control 100%
From the text: (§2) Rats were fed ad libum with a standard laboratory chow that contained 0.45% wt/wt of androst-5-ene-3β,7β,17β-triol for 6 days, followed by analysis of liver tissue on day 6 for levels of phosphoenolpyruvate carboxykinase (“PEPCK”) and 11β-hydroxysteroid dehydrogenase (“11β-HSD”) in the liver. Control animals were fed normal chow and livers were examined on day 6 for PEPCK and 11β-HSD levels by measurement of messenger RNAs (mRNAs) by RT-PCR. Both control and treated animals had free access to water. […] Levels of PPARα mRNA in these animals were not affected by feeding with androst-5-ene-3β,7β,17β-triol.

[7] = system: rats, trauma and hemorrhage; assay: rat model of hemorrhagic trauma, 40% loss of total blood volume; assay type: in vivo; conditions: one s.c. injection 40 mg/kg one hour after initiation of hemorrhage; n=12
Method: The effect of treatment in a rat model of hemorrhagic trauma was examined. Twenty-four rats were subjected to 40% loss of total blood volume, consisting of catheterization and laparotomy (soft tissue injury) to mimic trauma and hemorrhage. One hour after onset of hemorrhage, the animals were resuscitated with crystalloid fluid and packed red blood cells (PRBCs). […] Twelve animals received subcutaneous methyl cellulose control injection at 100 μL/kg body weight.

[8] = system: gerbils, cerebral ischemic stroke; assay: acute cerebral ischemic stroke by bilateral carotid occlusion; assay type: in vivo, gerbil; conditions: stroke treated
From the text: Treatment of neuron loss associated with trauma and osteoporosis or bone loss conditions. Immune competence is a complex function that can be acutely impaired following trauma-induced elevations in endogenous glucocorticoid (GC) levels. The compound 5-androstene-3β,7β,17β-triol administered parenterally was used to preserve these immune function by exerting a trophic or anabolic activity. […] Thus, the measured food-searching latency period in each group was 6.9±0.9 seconds (sec) for sham, 46.9±13.6 sec for stroke alone and 14.8±4.8 sec for stroke treated with 5-androstene-3β,7β,17β-triol. Concomitantly, the stroke-induced loss in CA1 hippocampal neuron count was markedly abrogated by 5-androstene-3β,7β,17β-triol (sham=362,247±6,839; stroke=152,354±11,575; and stroke+5-androstene-3β,7β,17β-triol=207,854±47,334).

[9] = system: thermally-injured mice (20% total body surface area); assay: bone loss in thermally-injured mice; assay type: in vivo, mouse
From the text: In bone loss conditions, 5-androstene-3β,7β,17β-triol affected the principal bone structures, i.e., cortical and trabecular layers and the growth plate. […] We observed partial protection against loss of bone mineral content as measured by dual X-ray absorptiometry.

PEPCK mRNA = assay: liver mRNA by RT-PCR in rats fed compound in chow: PEPCK; assay type: in vivo, rat; conditions: 0.45% wt/wt in chow for 6 days; control 100%
From the text: as §2

[10] = system: male Wistar rats, DNBS colitis; assay: DNBS induced distal colitis; assay type: in vivo, rat; conditions: s.c. once a day for 6 days, 0.2 or 2.0 mg/animal/day; 25-30% decrease considered significant
Method: Treatment of gastrointestinal inflammation. The capacity of formula 1 compounds to limit or inhibit inflammation or symptoms of inflammation was shown using an animal model for inflammatory bowel disease. Groups of 3 male Wistar rats (180±20 grams) fasted for 24 hours before 2,4-dinitrobenzene sulfonic acid (DNBS) or saline challenge were used. Distal colitis was induced by intra-colonic instillation of 0.5 mL of an ethanolic solution of DNBS (30 mg in 0.5 mL of a 30% ethanol in saline solution) after which 2 mL of air was injected through the cannula to ensure that the solution remained in the colon. The volume used was 0.1 mL per injection of 2 and 20 mg/mL of compound such as androst-5-ene-3β,7β,17β-triol in a liquid formulation, which was administered by subcutaneous injection once a day for 6 days (0.2 mg/animal/day or 2.0 mg/animal/day). The formulation contained 100 mg/mL of compound in a non-aqueous suspension, e.g., 2% benzyl alcohol w/v, 0.1% Brij 96 w/v and equal volumes of PEG 300 and propylene glycol. Concentrations of 2 mg/mL and 20 mg/mL were obtained by diluting the […] with vehicle that lacked compound.
The first dose was given 30 minutes after DNBS challenge. […] The presence of diarrhea was recorded daily by examining the anal area. […] Before removal of the colon, signs of adhesion between the colon and other organs are recorded. […]

11β-HSD1 mRNA = assay: liver mRNA by RT-PCR in rats fed compound in chow: 11β-HSD1; assay type: in vivo, rat; conditions: 0.45% wt/wt in chow for 6 days; control 100%
From the text: as §2

[11] = system: rats hemorrhaged to mean arterial pressure of about 35-40 mmHg; assay: reduced blood pressure hemorrhagic trauma protocol; assay type: in vivo, rat; conditions: one s.c. injection 40 mg/kg; n=7; untreated group 75%
Method: A reduced blood pressure hemorrhagic trauma protocol was also conducted as a second model of hemorrhagic trauma. In this protocol, 15 rats were hemorrhaged described above to a mean arterial pressure of about 35-40 mmHg and resuscitated one hour from onset of the hemorrhage with crystalloid and PRBCs. Seven […] subcutaneous injection of androst-5-ene-3β,7β,17β-triol in a methyl cellulose suspension at a concentration of 40 mg/kg body weight in 100 μL/kg body weight, one hour after initiation of hemorrhage, but before fluid resuscitation. Eight animals received subcutaneous methyl cellulose control injection at 100 μL/kg body weight. Two days after induction of hemorrhage, mortality in the untreated group (n=8) was 75%.

androgen receptor, sequence (P10275 whole entry, species assumed): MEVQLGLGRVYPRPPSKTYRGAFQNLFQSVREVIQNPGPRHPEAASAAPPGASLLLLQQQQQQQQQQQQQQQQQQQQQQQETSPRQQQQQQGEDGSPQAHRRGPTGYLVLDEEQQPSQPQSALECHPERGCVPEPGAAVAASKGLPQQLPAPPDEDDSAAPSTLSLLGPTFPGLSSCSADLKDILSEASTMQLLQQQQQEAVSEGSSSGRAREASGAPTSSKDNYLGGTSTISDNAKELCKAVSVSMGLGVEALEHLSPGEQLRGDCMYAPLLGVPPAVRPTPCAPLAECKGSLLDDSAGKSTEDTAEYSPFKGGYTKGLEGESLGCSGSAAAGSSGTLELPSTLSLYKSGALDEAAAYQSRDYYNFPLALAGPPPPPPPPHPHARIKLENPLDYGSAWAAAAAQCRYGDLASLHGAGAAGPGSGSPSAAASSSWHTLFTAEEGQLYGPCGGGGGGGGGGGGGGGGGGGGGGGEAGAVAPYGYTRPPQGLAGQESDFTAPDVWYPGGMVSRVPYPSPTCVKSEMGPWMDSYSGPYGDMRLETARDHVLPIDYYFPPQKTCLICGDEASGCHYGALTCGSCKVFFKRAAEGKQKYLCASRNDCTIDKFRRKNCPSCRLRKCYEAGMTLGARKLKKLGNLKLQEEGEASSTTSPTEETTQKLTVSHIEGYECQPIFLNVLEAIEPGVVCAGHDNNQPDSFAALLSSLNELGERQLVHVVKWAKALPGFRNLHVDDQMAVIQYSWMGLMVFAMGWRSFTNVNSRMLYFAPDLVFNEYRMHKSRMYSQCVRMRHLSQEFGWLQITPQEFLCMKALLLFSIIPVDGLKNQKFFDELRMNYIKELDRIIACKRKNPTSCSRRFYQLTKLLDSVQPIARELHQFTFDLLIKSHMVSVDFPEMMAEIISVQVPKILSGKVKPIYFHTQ

C[C@]12CC[C@H]3[C@@H]([C@@H](O)C=C4C[C@@H](O)CC[C@@]43C)[C@@H]1C[C@@H](O)[C@@H]2O [androst-5-ene-3β,7β,16α,17β-tetrol]
interaction with androgen receptor (androgen receptor): do not interact | permeability in the CaCo-2 cell line (CaCo-2 cell monolayer): not highly permeable | interaction with estrogen receptor-s or estrogen receptor-s [1]: do not interact | course of EAE compared to vehicle-treated mice (female SJL mice, EAE): significantly improved course of EAE | osteoprotegerin levels in the presence of 30 nM dexamethasone (MG-63 cells): normal osteoprotegerin levels | parent remaining mouse microsomes [2]: 100% (10 min) | augmenting muscle glucose uptake in the gastrocnemius muscle ([3]; ^14C-2-deoxyglucose, p<0.05): more effective | glucose infusion rate compared to the vehicle control ([3]; oral gavage 14 days, insulin 10 mU/kg/min): increased the glucose infusion rate | level of IL-6 in BAL compared to vehicle treated animals [4]: reduced levels | level of MPO compared to vehicle treated animals [4]: reduced levels | level of TNFα in BAL compared to vehicle treated animals [4]: reduced levels | parent remaining human microsomes ([5]; 10 min): 100% (10 min) | degree of sulfation and degree of glucuronidation compared to diols [6]: low

C[C@]12CC[C@H]3[C@@H]([C@@H](O)C=C4C[C@@H](O)CC[C@@]43C)[C@@H]1CC[C@@H]2O [androst-5-ene-3β,7β,17β-triol]
PPARα mRNA (PPARα mRNA): 105% | survival rate three days after induction of hemorrhage [7]: 100% | food-searching latency period ([8]; sham 6.9±0.9, stroke alone 46.9±13.6): 14.8 ± 4.8 s | CA1 hippocampal neuron count ([8]; sham 362,247±6,839, stroke 152,354±11,575): 207,854±47,334 | femur ash weight versus vehicle-treated burned mice [9]: significantly (p<0.01) greater | loss of cortical (femur) and trabecular/cancellous (tibia) bone mass and suppression of chondrocyte proliferation in growth plate [9]: significantly (p<0.01) prevented | PEPCK mRNA (PEPCK mRNA): 30% | parent remaining mouse microsomes [2]: 89% (10 min) | decrease in net colon-to-body weight ratio [10]: 15-20% | parent remaining human microsomes ([5]; 90 min): 86% (90 min) | 11β-HSD1 mRNA (11β-HSD1 mRNA): 45% | mortality rate two days after induction of hemorrhage [11]: 43%

Reference: patent US20080153792A1, “Drug Identification and Treatment Method” (priority 2006, published 2008)
